In patent US20100298141A1, “SUBSTITUTED PYRIDINE N-OXIDE HERBICIDES” (E. I. DU PONT DE NEMOURS AND COMPANY, priority 2007, published 2010):

Experiments:
morningglory = assay: Test C pre-/postemergence test; type: in vivo, Ipomoea coccinea
Method in brief: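 Seeds were planted and treated preemergence with test chemical in a non-phytotoxic solvent mixture containing surfactant. Postemergence applications of the same formulation went onto plants 2 to 18 cm tall (1- to 4-leaf stage). A dash marks no test result.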

rice = assay: Test C flooded paddy test; type: in vivo, Oryza sativa; settings: Flood
Method in brief: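 Visual injury ratings against untreated controls, taken 13 to 15 days after compound was added to paddy water standing 3 cm above the soil.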

bermudagrass = assay: Test F preemergence test; type: in vivo, Cynodon dactylon; settings: scale 0 to 100
Method in brief: (§1)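 Greenhouse screen: test chemical in surfactant-containing non-phytotoxic solvent applied preemergence to sown seeds or postemergence to sugarcane plants; after 14 to 21 days each species scored visually versus controls.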

Surinam grass = assay: Test F preemergence test; type: in vivo, Brachiaria decumbens; settings: scale 0 to 100
Method in brief: as §1

large crabgrass = assay: Test F preemergence test; type: in vivo, Digitaria sanguinalis; settings: scale 0 to 100
Method in brief: as §1

goosegrass = assay: Test F preemergence test; type: in vivo, Eleusine indica; settings: scale 0 to 100
Method in brief: as §1

johnsongrass = assay: Test F preemergence test; type: in vivo, Sorghum halepense; settings: scale 0 to 100; for Plant response rating, Johnsongrass: Preemergence
Method in brief: as §1

kochia = assay: Test F preemergence test; type: in vivo, Kochia scoparia; settings: scale 0 to 100
Method in brief: as §1

purple nutsedge = assay: Test F preemergence test; type: in vivo, Cyperus rotundus; settings: scale 0 to 100
Method in brief: as §1

common ragweed = assay: Test F preemergence test; type: in vivo, Ambrosia elation; settings: scale 0 to 100
Method in brief: as §1

Italian ryegrass = assay: Test F preemergence test; type: in vivo, Lolium multiflorum; settings: scale 0 to 100
Method in brief: as §1

broadleaf signalgrass = assay: Test F preemergence test; type: in vivo, Brachiaria platyphylla; settings: scale 0 to 100
Method in brief: as §1

Virginia dayflower = assay: Test F preemergence test; type: in vivo, Commelina virginica; settings: scale 0 to 100
Source text: Seeds of plant species selected from bermudagrass (Cynodon dactylon), Surinam grass (Brachiaria decumbens), large crabgrass (Digitaria sanguinalis), green foxtail (Setaria viridis), goosegrass (Eleusine indica), johnsongrass (Sorghum halepense), kochia (Kochia scoparia), pitted morningglory (Ipomoea lacunosa), purple nutsedge (Cyperus rotundus), common ragweed (Ambrosia elation), mustard (Brassica nigra), guineagrass (Panicum maximum), […] (Paspalum dilatatum), barnyardgrass (Echinochloa crus-galli), southern sandbur (Cenchrus echinatus), common sowthistle (Sonchus oleraceous), prickly […] spinosa), Italian ryegrass (Lolium multiflorum), common purslane (Portulaca oleracea), broadleaf signalgrass (Brachiaria platyphylla), common groundsel (Senecio vulgaris), common chickweed (Stellaria media), Virginia dayflower (Commelina virginica), annual bluegrass (Poa annua), naked crabgrass (Digitaria nuda), […] cochinchinensis), quackgrass (Elytrigia repens), Canada horseweed (Conyza canadensis), field bindweed (Convolvulus arvensis), […] (Bidens bipinnata), common mallow (Malva sylvestris), Russian thistle (Salsola kali), and sugarcane (Saccharum officinarum) were planted and treated preemergence with test chemicals formulated in a non-phytotoxic solvent mixture which included a surfactant. At a different time, sugarcane was treated with postemergence applications of some of the test chemicals formulated in the same manner. Plants were approximately 3- to 4-leaf stage for the postemergence treatments. Treated plants and controls were maintained in a greenhouse for 14 to 21 days, after which time all species were compared to controls and visually evaluated. […] A dash (-) response means no test result.

annual bluegrass = assay: Test F preemergence test; type: in vivo, Poa annua; settings: scale 0 to 100
Method in brief: as §1

naked crabgrass = assay: Test F preemergence test; type: in vivo, Digitaria nuda; settings: scale 0 to 100
Method in brief: as §1

CC(Oc1c(CS(=O)(=O)c2cccc[n+]2[O-])c(C(F)(F)F)nn1C)C(F)(F)F (stereo not drawn) [Compound 82]
Morningglory plant response rating (morningglory; 62 g ai/ha, Preemergence, scale 0 to 100): 70 | Morningglory plant response rating (morningglory; 125 g ai/ha, preemergence, scale 0 (no effect) to 100 (complete control)): 98 | Plant response rating (0 to 100), Morningglory (morningglory; Postemergence, 31 g ai/ha): 0 | Plant response rating (0 to 100), Morningglory (morningglory; Postemergence, 62 g ai/ha): 0 | Plant response rating, Morningglory (morningglory; Postemergence, 125 g ai/ha, scale 0 to 100, 0 no effect, 100 complete control): 0 | Plant response rating, Morningglory (morningglory; Postemergence, 250 g ai/ha, scale 0 to 100, 0 no effect, 100 complete control): 0 | Plant response rating, Morningglory (morningglory; Preemergence, 31 g ai/ha, scale 0 to 100 (0 no effect, 100 complete control)): 0 | Morningglory plant response rating (morningglory; preemergence, 250 g ai/ha, scale 0 (no effect) to 100 (complete control)): 100 | Plant response rating, Rice (rice; 62 g ai/ha, scale 0 to 100 (0 no effect, 100 complete control)): 0 | Plant response rating, Rice (rice; 250 g ai/ha, scale 0 to 100, 0 no effect, 100 complete control, 13 to 15 days): 60 | Plant response rating, Bermudagrass (bermudagrass; 16 g ai/ha, preemergence): 0 | Bermudagrass plant response rating (bermudagrass; 125 g ai/ha, preemergence): 100 | Plant response rating, Bermudagrass (bermudagrass; Preemergence, 62 g ai/ha): 90 | Plant response rating, Bermudagrass (bermudagrass; Preemergence, 31 g ai/ha): 80 | Plant response rating, Surinam Grass (Surinam grass; 16 g ai/ha, preemergence): 0 | Surinam Grass plant response rating (Surinam grass; 125 g ai/ha, preemergence): 100 | Plant response rating, Surinam Grass (Surinam grass; Preemergence, 62 g ai/ha): 90 | Plant response rating, Surinam Grass (Surinam grass; Preemergence, 31 g ai/ha): 30 | Plant response rating, Crabgrass, Large (large crabgrass; 16 g ai/ha, preemergence): 0 | Crabgrass, Large plant response rating (large crabgrass; 125 g ai/ha, preemergence): 100 | Plant response rating, Crabgrass, Large (large crabgrass; Preemergence, 62 g ai/ha): 90 | Plant response rating, Crabgrass, Large (large crabgrass; Preemergence, 31 g ai/ha): 50 | Plant response rating, Goosegrass (goosegrass; 16 g ai/ha, preemergence): 15 | Goosegrass plant response rating (goosegrass; 125 g ai/ha, preemergence): 98 | Plant response rating, Goosegrass (goosegrass; Preemergence, 62 g ai/ha): 98 | Plant response rating, Goosegrass (goosegrass; Preemergence, 31 g ai/ha): 75 | Johnsongrass plant response rating (johnsongrass; 125 g ai/ha, preemergence): 100 | Plant response rating, Johnsongrass (johnsongrass; 62 g ai/ha): 100 | Plant response rating, Johnsongrass (johnsongrass; 31 g ai/ha): 35 | Plant response rating, Kochia (kochia; 16 g ai/ha, preemergence): 100 | Kochia plant response rating (kochia; 125 g ai/ha, preemergence): 100 | Plant response rating, Kochia (kochia; Preemergence, 62 g ai/ha): 100 | Plant response rating, Kochia (kochia; Preemergence, 31 g ai/ha): 100 | Plant response rating, Purple Nutsedge (purple nutsedge; 16 g ai/ha, preemergence): 0 | Purple Nutsedge plant response rating (purple nutsedge; 125 g ai/ha, preemergence): 50 | Plant response rating, Purple Nutsedge (purple nutsedge; Preemergence, 62 g ai/ha): 30 | Plant response rating, Ragweed (common ragweed; 16 g ai/ha, preemergence): 0 | Ragweed plant response rating (common ragweed; 125 g ai/ha, preemergence): 0 | Plant response rating, Ragweed (common ragweed; Preemergence, 31 g ai/ha): 0 | Plant response rating, Ryegrass, Italian (Italian ryegrass; 16 g ai/ha, preemergence): 35 | Ryegrass, Italian plant response rating (Italian ryegrass; 125 g ai/ha, preemergence): 100 | Plant response rating, Ryegrass, Italian (Italian ryegrass; Preemergence, 62 g ai/ha): 75 | Plant response rating, Ryegrass, Italian (Italian ryegrass; Preemergence, 31 g ai/ha): 75 | Plant response rating, Signalgrass (broadleaf signalgrass; 16 g ai/ha, preemergence): 50 | Signalgrass plant response rating (broadleaf signalgrass; 125 g ai/ha, preemergence): 100 | Plant response rating, Signalgrass (broadleaf signalgrass; Preemergence, 62 g ai/ha): 100 | Plant response rating, Signalgrass (broadleaf signalgrass; Preemergence, 31 g ai/ha): 50 | Dayflower plant response rating (Virginia dayflower; 125 g ai/ha, preemergence): 100 | Plant response rating, Dayflower (Virginia dayflower; Preemergence, 62 g ai/ha): 90 | Plant response rating, Bluegrass (annual bluegrass; 16 g ai/ha, preemergence): 0 | Bluegrass plant response rating (annual bluegrass; 125 g ai/ha, preemergence): 100 | Plant response rating, Bluegrass (annual bluegrass; Preemergence, 62 g ai/ha): 70 | Plant response rating, Bluegrass (annual bluegrass; Preemergence, 31 g ai/ha): 60 | Plant response rating, Crabgrass, Naked (naked crabgrass; 16 g ai/ha, preemergence): 35 | Crabgrass, Naked plant response rating (naked crabgrass; 125 g ai/ha, preemergence): 100 | Plant response rating, Crabgrass, Naked (naked crabgrass; Preemergence, 62 g ai/ha): 100 | Plant response rating, Crabgrass, Naked (naked crabgrass; Preemergence, 31 g ai/ha): 98
